Test results reported in patent US20110118238A1, “2-ANILINOPURIN-8-ONES AS INHIBITORS OF TTK/MPS1 FOR THE TREATMENT OF PROLIFERATIVE DISORDERS” (ASTRAZENECA AB, priority 2007, published 2011).

target: T1, N-terminal GST tagged full length human TTK kinase (Homo sapiens, UniProt P33981); experiment: In Vitro TTK Kinase Assay 2 (Caliper LabChip LC3000); assay type: biochemical; conditions: recombinant TTK, 12 μM ATP, read-out: EAA2: Enzyme Assay Activity (In Vitro TTK kinase assay 2)
T1 construct: N-terminal GST tagged full length human TTK kinase; GST (N); made in house; host or cells: insect cells
T1 sequence (P33981 1-857): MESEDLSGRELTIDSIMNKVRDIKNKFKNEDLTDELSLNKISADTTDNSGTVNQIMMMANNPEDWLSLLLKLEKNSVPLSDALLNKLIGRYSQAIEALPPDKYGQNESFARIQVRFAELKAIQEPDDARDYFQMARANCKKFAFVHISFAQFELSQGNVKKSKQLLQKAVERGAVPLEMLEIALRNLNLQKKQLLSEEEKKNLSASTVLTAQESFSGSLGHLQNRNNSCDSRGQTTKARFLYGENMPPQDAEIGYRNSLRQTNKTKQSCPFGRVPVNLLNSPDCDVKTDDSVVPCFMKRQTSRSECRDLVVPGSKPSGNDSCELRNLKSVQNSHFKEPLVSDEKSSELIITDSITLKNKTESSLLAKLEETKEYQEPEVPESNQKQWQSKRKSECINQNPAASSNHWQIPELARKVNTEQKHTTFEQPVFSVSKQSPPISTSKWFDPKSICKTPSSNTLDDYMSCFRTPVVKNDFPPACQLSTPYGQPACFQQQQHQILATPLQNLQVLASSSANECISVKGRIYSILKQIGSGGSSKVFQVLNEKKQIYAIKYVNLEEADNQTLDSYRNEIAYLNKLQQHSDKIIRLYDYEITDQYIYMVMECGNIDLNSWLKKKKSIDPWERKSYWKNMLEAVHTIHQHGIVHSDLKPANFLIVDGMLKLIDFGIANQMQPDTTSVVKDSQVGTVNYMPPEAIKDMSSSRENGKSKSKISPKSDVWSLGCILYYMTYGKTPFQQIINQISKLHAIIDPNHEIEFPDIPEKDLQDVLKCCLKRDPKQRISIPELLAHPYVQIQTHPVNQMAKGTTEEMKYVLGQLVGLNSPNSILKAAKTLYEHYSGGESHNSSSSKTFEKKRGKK
Procedure: Each reaction was stopped by the addition of EDTA to a concentration of 40 mM in a solution which also comprised 0.1% coating reagent (Caliper LS), 100 mM HEPES pH 7.5, 0.015% v/v Brij™-35 and 5% DMSO. The stopped enzyme reactions were sipped through capillaries onto a Caliper chip where the peptide substrate and phosphorylated product were separated and detected via laser-induced fluorescence.

SMILES | IC50
CCN1CCCC1CNC(=O)c1ccc(Nc2ncc3c(n2)n(C2CCCC2)c(=O)n3C)c(OC)c1 (centres unmarked) [Example 60, 4-[(9-Cyclopentyl-7-methyl-8-oxo-8,9-dihydro-7H-purin-2-yl)-amino]-N-[(1-ethylpyrrolidin-2-yl)methyl]-3-methoxybenzamide] | 114 nM
COc1cc(N2CCN(C)CC2)ccc1Nc1ncc2c(n1)n(C(C)C)c(=O)n2C [Example 44, 9-Isopropyl-2-{[2-methoxy-4-(4-methylpiperazin-1-yl)phenyl]-amino}-7-methyl-7,9-dihydro-8H-purin-8-one] | 119 nM
COc1cc(C(=O)N2CCN(C3CCN(C)CC3)CC2)ccc1Nc1ncc2c(n1)n(C1CCCC1)c(=O)n2C [Example 51, 9-Cyclopentyl-2-[(2-methoxy-4-{[4-(1-methylpiperidin-4-yl)-piperazin-1-yl]-carbonyl}phenyl)amino]-7-methyl-7,9-dihydro-8H-purin-8-one] | 148 nM
COc1cc(C(=O)N2CC[C@@H](N(C)C)C2)ccc1Nc1ncc2c(n1)n(C1CCCC1)c(=O)n2C [Example 55, 9-Cyclopentyl-2-[(4-{[(3R)-3-(dimethylamino)pyrrolidin-1-yl]-carbonyl}-2-methoxyphenyl)amino]-7-methyl-7,9-dihydro-8H-purin-8-one] | 17.5 nM
CC(C)Oc1ccc(Nc2ncc3c(n2)n(C2CCCC2)c(=O)n3C)cc1 [Example 74, 9-Cyclopentyl-2-[(4-isopropoxyphenyl)amino]-7-methyl-7,9-dihydro-8H-purin-8-one] | 29.1 nM
COc1cc(C(=O)N2CCN(C)CC2)ccc1Nc1ncc2c(n1)n(C1CCCC1)c(=O)n2C [Example 50, 9-Cyclopentyl-2-({2-methoxy-4-[(4-methylpiperazin-1-yl)carbonyl]-phenyl}amino)-7-methyl-7,9-dihydro-8H-purin-8-one] | 60.3 nM
Cn1c(=O)n(C2CCCC2)c2nc(Nc3ccc(-c4cnco4)cc3)ncc21 [Example 76, 9-Cyclopentyl-7-methyl-2-{[4-(1,3-oxazol-5-yl)phenyl]amino}-7,9-dihydro-8H-purin-8-one] | 18.3 nM
CCN1CCN(c2ccc(Nc3ncc4c(n3)n(C(C)C)c(=O)n4C)c(OC)c2)CC1 [Example 45, 2-{[4-(4-Ethylpiperazin-1-yl)-2-methoxyphenyl]amino}-9-isopropyl-7-methyl-7,9-dihydro-8H-purin-8-one] | 109 nM
COc1cc(C(=O)N[C@H]2CCNC2)ccc1Nc1ncc2c(n1)n(C1CCCC1)c(=O)n2C [Example 69, 4-[(9-Cyclopentyl-7-methyl-8-oxo-8,9-dihydro-7H-purin-2-yl)-amino]-3-methoxy-N-[(3S)-pyrrolidin-3-yl]benzamide] | 41.3 nM
COc1cc(N2CCCN(C)CC2)ccc1Nc1ncc2c(n1)n(C(C)C)c(=O)n2C [Example 48, 9-Isopropyl-2-{[2-methoxy-4-(4-methyl-1,4-diazepan-1-yl)phenyl]-amino}-7-methyl-7,9-dihydro-8H-purin-8-one] | 136 nM
COc1cc(C(=O)NCCN2CCCCC2)ccc1Nc1ncc2c(n1)n(C1CCCC1)c(=O)n2C [Example 63, 4-[(9-Cyclopentyl-7-methyl-8-oxo-8,9-dihydro-7H-purin-2-yl)-amino]-3-methoxy-N-(2-piperidin-1-ylethyl)benzamide] | 66.4 nM
COc1cc(C(=O)NCCCn2ccnc2)ccc1Nc1ncc2c(n1)n(C1CCCC1)c(=O)n2C [Example 52, 4-[(9-Cyclopentyl-7-methyl-8-oxo-8,9-dihydro-7H-purin-2-yl)-amino]-N-[3-(1H-imidazol-1-yl)propyl]-3-methoxybenzamide] | 41.2 nM
CC(C)n1c(=O)n(C)c2cnc(Nc3ccc(C(=O)NC4CCN(C)CC4)c(F)c3)nc21 [Example 39, 2-Fluoro-4-[(9-isopropyl-7-methyl-8-oxo-8,9-dihydro-7H-purin-2-yl)-amino]-N-(1-methylpiperidin-4-yl)benzamide] | 2460 nM
COc1cc(C(=O)NCCN2CCN(C)CC2)ccc1Nc1ncc2c(n1)n(C1CCCC1)c(=O)n2C [Example 64, 4-[(9-Cyclopentyl-7-methyl-8-oxo-8,9-dihydro-7H-purin-2-yl)-amino]-3-methoxy-N-[2-(4-methylpiperazin-1-yl)ethyl]benzamide] | 61.1 nM
COc1cc(C(=O)N(C)CC2CCN(C(C)C)C2)ccc1Nc1ncc2c(n1)n(C1CCCC1)c(=O)n2C (centres unmarked) [Example 53, 4-[(9-Cyclopentyl-7-methyl-8-oxo-8,9-dihydro-7H-purin-2-yl)-amino]-N-[(1-isopropylpyrrolidin-3-yl)methyl]-3-methoxy-N-methylbenzamide] | 231 nM
CNC(=O)c1ccc(Nc2ncc3c(n2)n(C(C)C)c(=O)n3C)c(OC)c1 [Example 41, 4-[(9-Isopropyl-7-methyl-8-oxo-8,9-dihydro-7H-purin-2-yl)amino]-3-methoxy-N-methylbenzamide] | 7130 nM
COc1cc(N2CCN(C)CC2)ccc1Nc1ncc2c(n1)n(C1CCNCC1)c(=O)n2C [Example 70, 2-{[2-Methoxy-4-(4-methylpiperazin-1-yl)phenyl]amino}-7-methyl-9-piperidin-4-yl-7,9-dihydro-8H-purin-8-one] | 5360 nM
Cn1c(=O)n(C2CCCC2)c2nc(Nc3ccc(Cc4ccccc4)cc3)ncc21 [Example 78, 2-[(4-Benzylphenyl)amino]-9-cyclopentyl-7-methyl-7,9-dihydro-8H-purin-8-one] | 195 nM
Cn1c(=O)n(C2CCCC2)c2nc(Nc3ccc(N4CCOCC4)cc3)ncc21 [Example 80, 9-Cyclopentyl-7-methyl-2-[(4-morpholin-4-ylphenyl)amino]-7,9-dihydro-8H-purin-8-one] | 140 nM
COc1cc(C(=O)N[C@@H]2CCNC2)ccc1Nc1ncc2c(n1)n(C1CCCC1)c(=O)n2C [Example 68, 4-[(9-Cyclopentyl-7-methyl-8-oxo-8,9-dihydro-7H-purin-2-yl)-amino]-3-methoxy-N-[(3R)-pyrrolidin-3-yl]benzamide] | 65.3 nM
COc1cc(C(=O)N2CCC(N3CCCC3)CC2)ccc1Nc1ncc2c(n1)n(C1CCCC1)c(=O)n2C [Example 56, 9-Cyclopentyl-2-({2-methoxy-4-[(4-pyrrolidin-1-ylpiperidin-1-yl)-carbonyl]phenyl}amino)-7-methyl-7,9-dihydro-8H-purin-8-one] | 67.6 nM
COc1cc(C(=O)NC2CCN(C)CC2)ccc1Nc1ncc2c(n1)n(C(C)C)c(=O)n2C [Example 40, 4-[(9-Isopropyl-7-methyl-8-oxo-8,9-dihydro-7H-purin-2-yl)amino]-3-methoxy-N-(1-methylpiperidin-4-yl)benzamide] | 338 nM
COCCN1CCN(C(=O)c2ccc(Nc3ncc4c(n3)n(C3CCCC3)c(=O)n4C)c(OC)c2)CC1 [Example 57, 9-Cyclopentyl-2-[(2-methoxy-4-{[4-(2-methoxyethyl)piperazin-1-yl]-carbonyl}phenyl)amino]-7-methyl-7,9-dihydro-8H-purin-8-one] | 35.6 nM
CCOc1cc(N2CCN(C)CC2)ccc1Nc1ncc2c(n1)n(C(C)C)c(=O)n2C [Example 46, 2-{[2-Ethoxy-4-(4-methylpiperazin-1-yl)phenyl]amino}-9-isopropyl-7-methyl-7,9-dihydro-8H-purin-8-one] | 144 nM
COc1cc(C(=O)NCCN(C)C)ccc1Nc1ncc2c(n1)n(C1CCCC1)c(=O)n2C [Example 67, 4-[(9-Cyclopentyl-7-methyl-8-oxo-8,9-dihydro-7H-purin-2-yl)-amino]-N-[2-(dimethylamino)ethyl]-3-methoxybenzamide] | 119 nM
COc1cc(C(=O)O)ccc1Nc1ncc2c(n1)n(C1CCCC1)c(=O)n2C [Example 49, 4-[(9-Cyclopentyl-7-methyl-8-oxo-8,9-dihydro-7H-purin-2-yl)-amino]-3-methoxybenzoic acid] | 72.4 nM
COc1cc(C(=O)N(C)C)ccc1Nc1ncc2c(n1)n(C1CCCC1)c(=O)n2C [Example 65, 4-[(9-Cyclopentyl-7-methyl-8-oxo-8,9-dihydro-7H-purin-2-yl)-amino]-3-methoxy-N,N-dimethylbenzamide] | 27 nM
Cn1c(=O)n(C2CCCC2)c2nc(Nc3ccc(N4CCOCC4)c(Cl)c3)ncc21 [Example 72, 2-[(3-Chloro-4-morpholin-4-ylphenyl)amino]-9-cyclopentyl-7-methyl-7,9-dihydro-8H-purin-8-one] | 27 nM
COc1cc(OC2CCN(C)CC2)ccc1Nc1ncc2c(n1)n(C(C)C)c(=O)n2C [Example 42, 9-Isopropyl-2-({2-methoxy-4-[(1-methylpiperidin-4-yl)oxy]phenyl}-amino)-7-methyl-7,9-dihydro-8H-purin-8-one] | 68.8 nM
